# Assay results as given in ChEMBL document CHEMBL5316265, “Discovery of Clinical Candidate AZD0095, a Selective Inhibitor of Monocarboxylate Transporter 4 (MCT4) for Oncology” (J Med Chem, 2023).
# Tests used:
# [1] = Lipophilicity, logD of the compound at pH 7.4; format: physicochemical; conditions: buffer
# [2] = Aqueous solubility of the compound in pH 7.4 buffer; format: physicochemical
# [3] = target: Voltage-gated inwardly rectifying potassium channel KCNH2 (Homo sapiens, UniProt Q12809); assay: Inhibition of human ERG; format: toxicity
# [4] = Metabolic stability in rat hepatocytes measured per million cells; format: ADME, cell-based, Hepatocyte; conditions: read-out: CLH
# [5] = Metabolic stability in human hepatocytes measured per million cells; format: ADME, cell-based, Hepatocyte; conditions: read-out: CLH
# [6] = Oral bioavailability in rat; format: ADME, organism-based; conditions: in vivo
# [7] = Clearance in rat; format: ADME; conditions: in vivo
# [8] = target: T1, Monocarboxylate transporter 4 (Homo sapiens, UniProt O15427); assay: Inhibition of MCT4 in human SK-BR-3 cells assessed as inhibition of lactate efflux incubated for 4 hrs by automated microplate reader analysis; format: cell-based
# T1 sequence (O15427 whole entry): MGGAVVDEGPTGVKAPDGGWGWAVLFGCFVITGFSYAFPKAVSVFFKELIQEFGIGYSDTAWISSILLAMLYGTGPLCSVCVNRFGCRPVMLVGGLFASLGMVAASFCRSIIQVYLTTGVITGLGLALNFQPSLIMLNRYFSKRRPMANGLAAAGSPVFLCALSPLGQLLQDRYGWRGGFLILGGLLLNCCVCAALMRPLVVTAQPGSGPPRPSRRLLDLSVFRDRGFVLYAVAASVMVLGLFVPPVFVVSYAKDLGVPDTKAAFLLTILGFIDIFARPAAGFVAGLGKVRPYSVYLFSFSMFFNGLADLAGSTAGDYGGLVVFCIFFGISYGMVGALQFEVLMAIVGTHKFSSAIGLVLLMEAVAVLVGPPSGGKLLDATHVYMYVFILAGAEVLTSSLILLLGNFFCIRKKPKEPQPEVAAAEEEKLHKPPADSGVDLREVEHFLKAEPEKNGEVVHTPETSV
# [9] = Efflux ratio of apparent permeability basolateral to apical side over apical to basolateral side in human Caco-2 cells; format: ADME, cell-based
# [10] = target: T2, Monocarboxylate transporter 1 (Homo sapiens, UniProt P53985); assay: Inhibition of MCT1 in human K562 cells assessed as inhibition of lactate efflux incubated for 1 hr by FLIPR method; format: cell-based
# T2 sequence (P53985 whole entry): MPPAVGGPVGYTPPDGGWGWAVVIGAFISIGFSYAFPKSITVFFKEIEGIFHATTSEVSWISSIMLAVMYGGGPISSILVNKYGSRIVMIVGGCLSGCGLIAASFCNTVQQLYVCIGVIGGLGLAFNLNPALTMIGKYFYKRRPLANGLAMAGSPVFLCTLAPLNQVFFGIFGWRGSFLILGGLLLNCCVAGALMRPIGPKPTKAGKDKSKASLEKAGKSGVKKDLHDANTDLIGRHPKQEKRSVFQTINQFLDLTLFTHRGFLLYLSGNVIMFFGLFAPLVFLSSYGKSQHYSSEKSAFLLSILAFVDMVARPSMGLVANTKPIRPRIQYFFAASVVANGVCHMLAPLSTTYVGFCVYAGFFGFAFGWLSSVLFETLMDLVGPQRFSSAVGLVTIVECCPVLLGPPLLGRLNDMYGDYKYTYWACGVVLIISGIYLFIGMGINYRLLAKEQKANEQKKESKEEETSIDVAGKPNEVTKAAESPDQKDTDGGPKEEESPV
# [11] = Apparent permeability of the compound across apical side to basolateral side in human Caco-2 cells; format: ADME, cell-based
# [12] = Thermodynamic solubility of the compound in FaSSIF using crystalline form of sample at pH 6.5; format: physicochemical; conditions: read-out: Therm_solubility
# [13] = Plasma protein binding in human assessed as free fraction; format: ADME, cell-free
# [14] = Plasma protein binding in rat assessed as free fraction; format: ADME, cell-free
# [15] = Plasma protein binding in dog assessed as free fraction; format: ADME, cell-free, Canis lupus familiaris
# [16] = Metabolic stability in human hepatocytes assessed as intrinsic clearance measured per million cells; format: ADME, cell-based, Hepatocyte; conditions: read-out: CLH
# [17] = Metabolic stability in dog hepatocytes assessed as intrinsic clearance measured per million cells; format: ADME, cell-based, Canis lupus familiaris, Hepatocyte; conditions: read-out: CLH
# [18] = Clearance in Wistar rat at 2 mg/kg, iv; format: ADME, organism-based; conditions: in vivo
# [19] = Clearance in Beagle dog at 1 mg/kg, iv; format: ADME, organism-based, Canis lupus familiaris; conditions: in vivo
# [20] = Oral bioavailability in Wistar rat at 5 mg/kg; format: ADME, organism-based; conditions: in vivo
# [21] = Oral bioavailability in Beagle dog at 2 mg/kg; format: ADME, organism-based, Canis lupus familiaris; conditions: in vivo
# NCI-H358 = assay: Antiproliferative activity against human NCI-H358 cells assessed as cell growth inhibition; format: functional
# [22] = Toxicity in mouse assessed as body weight loss at 100 mg/kg BID administered twice daily for 17 days via oral gavage; format: organism-based; conditions: in vivo, 408 h, time 17 day
# [23] = Toxicity in mouse assessed as body weight loss at 100 mg/kg BID administered twice daily for 17 days via oral gavage in presence of cediranib; format: organism-based; conditions: in vivo, 408 h, time 17 day
# Voltage-gated inwardly rectifying potassium channel KCNH2, sequence (Q12809 whole entry): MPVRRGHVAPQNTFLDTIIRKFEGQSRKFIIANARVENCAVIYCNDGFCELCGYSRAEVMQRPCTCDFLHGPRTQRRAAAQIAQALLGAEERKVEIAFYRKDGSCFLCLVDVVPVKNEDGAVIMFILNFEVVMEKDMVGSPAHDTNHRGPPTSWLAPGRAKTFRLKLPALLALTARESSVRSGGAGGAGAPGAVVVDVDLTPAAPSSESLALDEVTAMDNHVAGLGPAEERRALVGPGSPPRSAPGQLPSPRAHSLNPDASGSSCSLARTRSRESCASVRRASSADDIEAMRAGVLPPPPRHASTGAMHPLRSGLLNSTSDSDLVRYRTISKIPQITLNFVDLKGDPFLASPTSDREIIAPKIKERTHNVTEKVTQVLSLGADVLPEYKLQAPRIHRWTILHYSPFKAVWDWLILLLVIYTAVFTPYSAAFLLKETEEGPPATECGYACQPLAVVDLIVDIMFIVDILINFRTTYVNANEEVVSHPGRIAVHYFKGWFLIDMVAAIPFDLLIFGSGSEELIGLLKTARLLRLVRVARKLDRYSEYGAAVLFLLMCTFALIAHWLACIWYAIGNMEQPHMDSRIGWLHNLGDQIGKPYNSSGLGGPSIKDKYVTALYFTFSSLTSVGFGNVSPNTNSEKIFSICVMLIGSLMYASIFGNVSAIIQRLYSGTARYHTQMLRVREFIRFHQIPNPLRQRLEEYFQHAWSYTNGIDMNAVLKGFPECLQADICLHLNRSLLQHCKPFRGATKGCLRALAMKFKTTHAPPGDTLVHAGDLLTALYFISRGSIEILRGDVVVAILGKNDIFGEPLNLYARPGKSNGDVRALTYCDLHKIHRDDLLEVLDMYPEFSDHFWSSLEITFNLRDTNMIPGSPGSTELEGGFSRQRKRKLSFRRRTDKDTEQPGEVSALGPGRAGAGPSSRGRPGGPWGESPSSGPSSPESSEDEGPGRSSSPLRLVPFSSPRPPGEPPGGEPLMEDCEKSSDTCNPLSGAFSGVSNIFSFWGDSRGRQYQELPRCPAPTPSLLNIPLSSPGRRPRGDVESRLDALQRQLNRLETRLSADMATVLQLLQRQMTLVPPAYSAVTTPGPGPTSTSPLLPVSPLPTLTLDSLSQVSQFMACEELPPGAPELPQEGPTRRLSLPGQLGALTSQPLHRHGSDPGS
smiles,measurement,setting,value
Cc1nc2nc(C)c(CCNC(=O)c3ccc(-c4ccccc4)cc3)c(C)n2n1,logD,[1],3.4
same,solubility,[2],2 µM
Cc1nc2nc(C)c(CCNC(=O)c3cnc(-c4ccc([C@@H]5COCCN5C)cc4)cn3)c(C)n2n1,logD,[1],1.9
same,solubility,[2],> 300 µM
Cc1nc2nc(C)c(C[C@@H]3CCN(c4ccc(-c5ccc(CN6CCOCC6)nn5)cc4)C3)c(C)n2n1,logD,[1],2.3
same,IC50,[3],13 µM
Cc1nc2ncnn2c(C)c1CCC(=O)Nc1nnc(-c2ccc(C(C)C)cc2)s1,logD,[1],3.7
Cc1nc2nc(C)c(CCNC(=O)c3cnc(-c4ccc([C@H]5COCCN5C)cc4)cn3)c(C)n2n1,logD,[1],1.9
same,solubility,[2],224 µM
Cc1nc2nc(C)c(CCNC(=O)c3cnc(-c4ccccc4)cn3)c(C)n2n1,logD,[1],2.4
same,solubility,[2],3 µM
Cc1nc2nc(C)c(C[C@@H]3CCN(c4cnc(-c5ccc(CN6CCN(C)CC6)cc5)cn4)C3)c(C)n2n1,logD,[1],2
same,IC50,[3],> 24 µM
same,hepatocyte CLint,[4],< 2 µL/min/1e6 cells
same,hepatocyte CLint,[5],1.9 µL/min/1e6 cells
same,bioavailability,[6],61%
same,clearance,[7],29 mL/min/kg
Cc1nc2nc(C)c(CCC(=O)Nc3nnc(-c4ccccc4)s3)c(C)n2n1,logD,[1],2.8
CC(=O)N1CCN(Cc2ccc(-c3ccc(N4CC[C@@H](Oc5c(C)nc6nc(C)nn6c5C)C4)cc3)nn2)CC1,logD,[1],1.4
same,IC50,[3],> 33 µM
Cc1nc2nc(C)c(O[C@@H]3CCN(c4ccc(-c5ccc(CN6CCN(C)CC6)nn5)cc4)C3)c(C)n2n1,logD,[1],1.4
same,IC50,[3],> 33 µM
Cc1nc2nc(C)c(CCNC(=O)c3nnc(-c4ccccc4)s3)c(C)n2n1,logD,[1],2.5
Cc1nc2nc(C)c(C[C@@H]3CCN(c4ccc(-c5cnc(CN6CCOCC6)cn5)cc4)C3)c(C)n2n1,logD,[1],2.7
Cc1nc2nc(C)c(C[C@@H]3CCN(c4cnc(-c5ccc(CN6CCOCC6)cc5)cn4)C3)c(C)n2n1,IC50,[8],< 0.00038 µM
same,logD,[1],2.6
same,efflux ratio,[9],1.1
same,IC50,[3],1.8 µM
same,hepatocyte CLint,[4],13 µL/min/1e6 cells
same,hepatocyte CLint,[5],3.4 µL/min/1e6 cells
same,bioavailability,[6],47%
same,clearance,[7],53 mL/min/kg
Cc1nc2ncnn2c(C)c1CCC(=O)Nc1nnc(-c2ccccc2)s1,logD,[1],2.5
Cc1nc2nc(C)c(C[C@@H]3CCN(c4ccc(-c5ccc(CN6CCN(C)CC6)nn5)cc4)C3)c(C)n2n1,logD,[1],1.8
same,IC50,[3],> 33 µM
Cc1nc2nc(C)c(CCNC(=O)c3cnc(-c4ccc(CN5CCOCC5)cc4)cn3)c(C)n2n1,logD,[1],1.8
same,solubility,[2],138 µM
same,IC50,[3],24 µM
same,hepatocyte CLint,[4],17 µL/min/1e6 cells
same,hepatocyte CLint,[5],2.5 µL/min/1e6 cells
same,bioavailability,[6],34%
same,clearance,[7],31 mL/min/kg
Cc1nc2nc(C)c(O[C@@H]3CCN(c4ccc(-c5ccc(CN6CCOCC6)nn5)cc4)C3)c(C)n2n1,logD,[1],1.8
same,IC50,[3],29 µM
same,IC50,[10],> 30 µM
same,Papp A→B,[11],13 ×10⁻⁶ cm/s
same,solubility thermodynamic,[12],839 µM
same,fraction unbound,[13],0.32
same,fraction unbound,[14],0.3
same,fraction unbound,[15],0.39
same,hepatocyte CLint,[16],1.9 µL/min/1e6 cells
same,hepatocyte CLint,[17],3.3 µL/min/1e6 cells
same,clearance,[18],15 mL/min/kg
same,clearance,[19],14 mL/min/kg
same,bioavailability,[20],106%
same,bioavailability,[21],84%
same,GI50,NCI-H358,0.026 µM
same,Activity,[22],Non-Toxic
same,Activity,[23],Non-Toxic
